Experimental data published in patent US11065253B2, “Arylquinazolines” (Merck Patent GmbH, priority 2013, dated 2021).

These molecules were tested on phospho-serine 2056 DNA-PK in HCT116 cells (assay: DNA-PK phosphorylation at serine 2056 (cellular), ELISA in bleomycin-treated HCT116 cells). Conditions: Homo sapiens, HCT-116, 6 h, cellular; HCT116 cells, 10 μM bleomycin, six hours; read-out: IC50 pDNA-PK.
Assay type: cell-based
How it was run: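 HCT116 cells grown overnight were co-treated with 10 μM bleomycin and test compound for 6 h at 37 °C. Phospho-DNA-PK was quantified by chemiluminescent ELISA and normalised to total DNA-PKcs signal, with DMSO control as blank.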

Row | IC50 | SMILES
1 | < 0.5 µM | COc1cnc(C(O)c2ccc(F)c(-c3ncnc4cc(N5CCOCC5)ccc34)c2)c(Cl)c1 (stereo not shown) [Example 31, (3-Chloro-5-methoxy-pyridin-2-yl)-[4-fluoro-3-(7-morpholin-4-yl-quinazolin-4-yl)phenyl]-methanol]
2 | 5 to 10 µM | CN(C)c1ccc(C(O)c2ccc(F)c(-c3ncnc4cc(N5CCOCC5)ccc34)c2)nn1 (stereo not shown) [Example 68, (6-Dimethylamino-pyridazin-3-yl)-[4-fluoro-3-(7-morpholin-4-yl-quinazolin-4-yl)phenyl]-methanol]
3 | < 0.5 µM | COc1ccc(C(O)c2ccc(F)c(-c3ncnc4cc(N5CCOCC5)ccc34)c2)nn1 (stereo not shown) [Example 74, [4-Fluoro-3-(7-morpholin-4-yl-quinazolin-4-yl)phenyl]-(6-methoxypyridazin-3-yl)methanol]
4 | < 0.5 µM | COc1cc(C(O)c2ccc(F)c(-c3ncnc4cc(N5CCOCC5)ccc34)c2)c(Cl)nn1 (stereo not shown) [Example 7, (3-Chloro-6-methoxy-pyridazin-4-yl)-[4-fluoro-3-(7-morpholin-4-yl-quinazolin-4-yl)phenyl]-methanol]
5 | 10 to 30 µM | NCCn1nc(C(O)c2cc(-c3ncnc4cc(N5CCOCC5)ccc34)c(F)cc2Cl)ccc1=O (stereo not shown) [Example 94, 2-(2-Amino-ethyl)-6-{[2-Chloro-4-fluoro-5-(7-morpholin-4-yl-quinazolin-4-yl)phenyl]-hydroxy-methyl}-2H-pyridazin-3-one]
6 | 10 to 30 µM | COc1cnc(C(O)c2ccc(F)c(-c3ncnc4cc(N5CCOCC5)ccc34)c2)nc1 (stereo not shown) [Example 66, [4-Fluoro-3-(7-morpholin-4-yl-quinazolin-4-yl)phenyl]-(5-methoxypyrimidin-2-yl)methanol]
7 | 0.5 to 5 µM | COc1ccc([C@@H](O)c2ccc(F)c(-c3ncnc4cc(N5CCOCC5)ccc34)c2)nn1 [Example 72, (S)-[4-Fluoro-3-(7-morpholin-4-yl-quinazolin-4-yl)phenyl]-(6-methoxypyridazin-3-yl)methanol]
8 | < 0.5 µM | OC(c1ccc(F)c(-c2ncnc3cc(N4CCOCC4)ccc23)c1)c1c(F)cncc1Cl (stereo not shown) [Example 77, (3-Chloro-5-fluoro-pyridin-4-yl)-[4-fluoro-3-(7-morpholin-4-yl-quinazolin-4-yl)phenyl]-methanol]

Same assay, conditions: Homo sapiens, HCT-116, cellular DNA-PK phosphorylation at serine 2056, HCT116 cells; read-out: IC50 pDNA-PK

Row | IC50 | SMILES
9 | < 0.5 µM | COc1nccnc1C(O)c1cc(-c2ncnc3cc(N4CCOCC4)ccc23)c(F)cc1Cl (stereo not shown) [Example 468, [2-Chloro-4-fluoro-5-(7-morpholin-4-yl-quinazolin-4-yl)-phenyl]-(3-methoxy-pyrazin-2-yl)-methanol]
10 | 0.5 to 5 µM | Cn1cnc2c(C(O)c3cc(-c4ncnc5cc(N6CCOCC6)ccc45)ccc3Cl)ncnc21 (stereo not shown) [Example 371, [2-Chloro-5-(7-morpholin-4-yl-quinazolin-4-yl)-phenyl]-(9-methyl-9H-purin-6-yl)-methanol]
11 | 0.5 to 5 µM | OC(c1cc(-c2ncnc3cc(N4CCOCC4)ccc23)c(F)cc1F)c1nnc2ccccn12 (stereo not shown) [Example 379, [2,4-Difluoro-5-(7-morpholin-4-yl-quinazolin-4-yl)-phenyl]-[1,2,4]-triazolo[4,3-a]pyridin-3-ylmethanol]

Same assay, conditions: Homo sapiens, HCT-116, phospho-serine 2056 DNA-PK, bleomycin-treated HCT116 cells; class symbols A-D; read-out: IC50 pDNA-PK

Row | IC50 | SMILES
12 | 10 to 30 µM | Fc1ccc(C(OC(F)F)c2nccs2)cc1-c1ncnc2cc(N3CCOCC3)ccc12 (stereo not shown) [Example 199, 4-[5-(Difluoro-methoxy-thiazol-2-ylmethyl)-2-fluoro-phenyl]-7-morpholin-4-yl-quinazoline]
13 | 5 to 10 µM | OCc1csc([C@H](O)c2cc(-c3ncnc4cc(N5CCOCC5)ccc34)c(F)cc2Cl)n1 [Example 186, (R)-[2-Chloro-4-fluoro-5-(7-morpholin-4-yl-quinazolin-4-yl)-phenyl]-(4-hydroxymethyl-thiazol-2-yl)-methanol]
14 | < 0.5 µM | OC(c1ccc(OC2COC2)nn1)c1cc(-c2ncnc3cc(N4CCOCC4)ccc23)c(F)cc1Cl (stereo not shown) [Example 100, [2-Chloro-4-fluoro-5-(7-morpholin-4-yl-quinazolin-4-yl)-phenyl]-[6-(oxetan-3-yloxy)pyridazin-3-yl]-methanol]
15 | 0.5 to 5 µM | CCn1cc(C(O)c2cc(-c3ncnc4cc(N5CCOCC5)ccc34)c(F)cc2Cl)cn1 (stereo not shown) [Example 202, [2-Chloro-4-fluoro-5-(7-morpholin-4-ylquinazolin-4-yl)-phenyl]-(1-ethyl-1H-pyrazol-4-yl)-methanol]
16 | 5 to 10 µM | Cc1nc(C(O)c2ccc(F)c(-c3ncnc4cc(N5CCOCC5)ccc34)c2)sc1CO (stereo not shown) [Example 200, [4-Fluoro-3-(7-morpholin-4-yl-quinazolin-4-yl)-phenyl]-(5-hydroxy-methyl-4-methyl-thiazol-2-yl)-methanol]
17 | 10 to 30 µM | OC(c1cccc(-c2ncnc3cc(N4CCOCC4)ccc23)c1)(c1nccs1)C(F)(F)F (stereo not shown) [Example 172, 2,2,2-Trifluoro-1-[3-(7-morpholin-4-yl-quinazolin-4-yl)-phenyl]-1-thiazol-2-ylethanol]
18 | 10 to 30 µM | Cc1nc(C(O)c2cnc(F)c(-c3ncnc4cc(N5CCOCC5)ncc34)c2)sc1C (stereo not shown) [Example 196, (4,5-Dimethyl-thiazol-2-yl)-[6-fluoro-5-(7-morpholin-4-yl-pyrido[4,3-d}-pyrimidin-4-yl)-pyridin-3-yl]-methanol]
19 | 0.5 to 5 µM | OCCOc1ccc(C(O)c2cc(-c3ncnc4cc(N5CCOCC5)ccc34)c(F)cc2Cl)nn1 (stereo not shown) [Example 116, 2-(6-{[2-Chloro-4-fluoro-5-(7-morpholin-4-yl-quinazolin-4-yl)-phenyl]hydroxy-methyl}pyridazin-3-yl-oxy)ethanol]

Same assay, conditions: Homo sapiens, HCT-116, phospho-serine 2056 DNA-PK, bleomycin-treated HCT116 cells; read-out: IC50 pDNA-PK

Row | IC50 | SMILES
20 | 0.5 to 5 µM | OC(c1cc(-c2ncnc3cc(N4CCOCC4)ccc23)ccc1Cl)c1nccn2cccc12 (stereo not shown) [Example 361, [2-Chloro-5-(7-morpholin-4-yl-quinazolin-4-yl)-phenyl]pyrrolo[1,2-a]-pyrazin-1-ylmethanol]
21 | 10 to 30 µM | COC(c1ccc(F)c(-c2ncnc3cc(N4CCOCC4)ccc23)c1)c1nccnc1C (stereo not shown) [Example 353, 4-{2-Fluoro-5-[methoxy-(3-methyl-pyrazin-2-yl)methyl]-phenyl}-7-morpholin-4-ylquinazoline (Ena 2)]
22 | 5 to 10 µM | NC(=O)C(c1ccc(F)c(-c2ncnc3cc(N4CCOCC4)ccc23)c1)c1ncccc1Cl (stereo not shown) [Example 313, 2-(3-Chloro-pyridin-2-yl)-2-[4-fluoro-3-(7-morpholin-4-yl-quinazolin-4-yl)-phenyl]acetamide]
23 | 10 to 30 µM | Cc1nccnc1C(O)c1ccc(F)c(-c2ncnc3cc(N4CCOCC4)c(F)cc23)c1 (stereo not shown) [Example 283, [4-Fluoro-3-(6-fluoro-7-morpholin-4-yl-quinazolin-4-yl)-phenyl]-(3-methyl-pyrazin-2-yl)-methanol]
24 | 10 to 30 µM | NC(=O)C(c1cc(-c2ncnc3cc(N4CCOCC4)ccc23)ccc1Cl)c1nccnc1Cl (stereo not shown) [Example 315, 2-[2-Chloro-5-(7-morpholin-4-yl-quinazolin-4-yl)-phenyl]-2-(3-chloro-pyrazin-2-yl)-acetamide]
25 | 0.5 to 5 µM | COc1ccc(C(O)c2cc(-c3ncnc4cc(N5CCOCC5)ccc34)ccc2F)nn1 (stereo not shown) [Example 357, [2-Fluoro-5-(7-morpholin-4-yl-quinazolin-4-yl)-phenyl]-(6-methoxy-pyridazin-3-yl)-methanol]
26 | 0.5 to 5 µM | Cn1c(C(O)c2ccc(F)c(-c3ncnc4cc(N5CCOCC5)ccc34)c2)nccc1=O (stereo not shown) [Example 360, 2-([4-Fluoro-3-(7-morpholin-4-yl-quinazolin-4-yl)-phenyl]hydroxy-methyl}-3-methyl-3H-pyrimidin-4-one]
27 | 10 to 30 µM | Cn1nc(C(C(N)=O)c2cc(-c3ncnc4cc(N5CCOCC5)ccc34)c(F)cc2Cl)ccc1=O (stereo not shown) [Example 311, 2-[2-Chloro-4-fluoro-5-(7-morpholin-4-yl-quinazolin-4-yl)-phenyl]-2-(1-methyl-6-oxo-1,6-dihydro-pyridazin-3-yl)-acetamide]

Same assay, conditions: cellular DNA-PK phosphorylation at serine 2056, HCT116 cells; read-out: IC50 pDNA-PK

Row | IC50 | SMILES
28 | 0.5 to 5 µM | OC(c1cc(-c2ncnc3cc(N4CCOCC4)ccc23)c(F)cc1F)c1ncnc2ccoc12 (stereo not shown) [Example 446, [2,4-Difluoro-5-(7-morpholin-4-yl-quinazolin-4-yl)-phenyl]furo[3,2-d}-pyrimidin-4-yl-methanol]
29 | < 0.5 µM | Cn1c(C(O)c2ccc(F)c(-c3ncnc4cc(N5CCOCC5)ccc34)c2)cccc1=O (stereo not shown) [Example 376, 6-{[4-Fluoro-3-(7-morpholin-4-yl-quinazolin-4-yl)-phenyl]hydroxy-methyl}-1-methyl-1H-pyridin-2-one (Ena 1)]
30 | < 0.5 µM | OC(c1cc(-c2ncnc3cc(N4CCOCC4)ccc23)c(F)cc1Cl)c1nccn2ccnc12 (stereo not shown) [Example 397, [2-Chloro-4-fluoro-5-(7-morpholin-4-yl-quinazolin-4-yl)-phenyl]imidazo-[1,2-a]pyrazin-8-yl-methanol]

Row | SMILES | IC50
31 | COc1nccnc1C(O)c1cc(-c2ncnc3cc(N4CCOCC4)ccc23)ccc1Cl (stereo not shown) [Example 422, [2-Chloro-5-(7-morpholin-4-yl-quinazolin-4-yl)-phenyl]-(3-methoxy-pyrazin-2-yl)-methanol] | 0.5 to 5 µM

Same assay, conditions: phospho-serine 2056 DNA-PK, bleomycin-treated HCT116 cells; read-out: IC50 pDNA-PK

Row | IC50 | SMILES
32 | 0.5 to 5 µM | Cn1cnc2c(C(O)c3cc(-c4ncnc5cc(N6CCOCC6)ccc45)c(F)cc3F)ncnc21 (stereo not shown) [Example 347, [2,4-Difluoro-5-(7-morpholin-4-yl-quinazolin-4-yl)-phenyl]-(9-methyl-9H-purin-6-yl)-methanol (Ena 1)]
33 | 0.5 to 5 µM | OC(c1ccc(F)c(-c2ncnc3cc(N4CCOCC4)ccc23)c1)c1nnc2ccccn12 (stereo not shown) [Example 343, [4-Fluoro-3-(7-morpholin-4-yl-quinazolin-4-yl)-phenyl]-[1,2,4]-triazolo[4,3-a]pyridin-3-ylmethanol (Ena 2)]
34 | < 0.5 µM | COc1ccc(C(O)c2cc(-c3ncnc4cc(N5CCOCC5)cc(F)c34)c(F)cc2Cl)nn1 (stereo not shown) [Example 271, [2-Chloro-4-fluoro-5-(5-fluoro-7-morpholin-4-yl-quinazolin-4-yl)-phenyl]-(6-methoxy-pyridazin-3-yl)-methanol (Ena 1)]
